Assay results taken from patent US20260232767A1, “INTERLEUKIN-23 RECEPTOR ANTAGONIST PEPTIDES FOR USE IN THE TREATMENT OF PSORIASIS” (Janssen Pharmaceutica NV, priority 2023, published 2026).

Tested on: subjects with moderate-to-severe plaque psoriasis
Experiment: PSSD symptom and sign scores, Example 2
Assay type: in vivo, human
Conditions: for Change from Baseline in PSSD Sign Score, LSMean / Change from Baseline in PSSD Symptom Score, LSMean: MMRM

CC(=O)NCCCC[C@@H]1NC(=O)[C@H](Cc2c[nH]c3c(C)cccc23)NC(=O)[C@H]([C@@H](C)O)NC(=O)[C@H](CC(N)=O)NC(=O)[C@@H](NC(C)=O)C(C)(C)SSC(C)(C)[C@@H](C(=O)N[C@@H](Cc2ccc(OCCN)cc2)C(=O)N[C@@H](Cc2ccc3ccccc3c2)C(=O)NC2(C(=O)N[C@@H](CCC(=O)O)C(=O)N[C@@H](CC(N)=O)C(=O)N[C@@H](Cc3cccnc3)C(=O)N(C)CC(N)=O)CCOCC2)NC1=O [IL-23 receptor antagonist peptide, Ac-[Pen]*-N-T-[W(7-Me)]-[Lys(Ac)]-[Pen]*-Phe[4-(2-aminoethoxy)]-[2-Nal]-[THP]-E-N-[3-Pal]-Sarc-NH2 (*[Pen]-[Pen]* formdisulfidebond)]
Change from Baseline in PSSD Symptom Score, Mean (Week 4, 50 mg QD): −23.6
Change from Baseline in PSSD Symptom Score, Median (Week 4, 50 mg QD): −23.0
Change from Baseline in PSSD Sign Score, LSMean (Week 4, 50 mg QD): −28.0
Change from Baseline in PSSD Symptom Score, LSMean (Week 4, 50 mg QD): −23.4
Change from Baseline in PSSD Sign Score, Mean (Week 4, 100 mg BID): −33.3
Change from Baseline in PSSD Sign Score, Median (Week 4, 100 mg BID): −32.0
Change from Baseline in PSSD Symptom Score, Mean (Week 4, 100 mg BID): −26.1
Change from Baseline in PSSD Symptom Score, Median (Week 4, 100 mg BID): −22.0
Subjects Achieving PSSD Symptom Score 0 (%) (Week 4, 100 mg BID, Baseline Symptom Score ≥1, N=42): (4.8%)
Change from Baseline in PSSD Sign Score, LSMean (Week 4, 100 mg BID): −32.9
Change from Baseline in PSSD Symptom Score, LSMean (Week 4, 100 mg BID): −24.4
Change from Baseline in PSSD Sign Score, Mean (Week 4, 100 mg QD): −31.1
Change from Baseline in PSSD Sign Score, Median (Week 4, 100 mg QD): −32.5
Change from Baseline in PSSD Symptom Score, Mean (Week 4, 100 mg QD): −19.4
Change from Baseline in PSSD Symptom Score, Median (Week 4, 100 mg QD): −17.0
Subjects Achieving PSSD Sign Score 0 (%) (Week 4, 100 mg QD, Baseline Sign Score ≥1, N=43): (2.3%)
Subjects Achieving PSSD Symptom Score 0 (%) (Week 4, 100 mg QD, Baseline Symptom Score ≥1, N=43): (2.3%)
Change from Baseline in PSSD Sign Score, LSMean (Week 4, 100 mg QD): −33.8
Change from Baseline in PSSD Symptom Score, LSMean (Week 4, 100 mg QD): −24.5
Change from Baseline in PSSD Sign Score, Mean (Week 8, 25 mg BID): −33.8
Change from Baseline in PSSD Sign Score, Median (Week 8, 25 mg BID): −38.0
Change from Baseline in PSSD Symptom Score, Mean (Week 8, 25 mg BID): −27.5
Change from Baseline in PSSD Symptom Score, Median (Week 8, 25 mg BID): −22.0
Subjects Achieving PSSD Sign Score 0 (%) (Week 8, 25 mg BID, Baseline Sign Score ≥1, N=41): (2.4%)
Subjects Achieving PSSD Symptom Score 0 (%) (Week 8, 25 mg BID, Baseline Symptom Score ≥1, N=41): (7.3%)
Change from Baseline in PSSD Sign Score, LSMean (Week 8, 25 mg BID): −34.1
Change from Baseline in PSSD Symptom Score, LSMean (Week 8, 25 mg BID): −27.5
Change from Baseline in PSSD Sign Score, Mean (Week 8, 25 mg QD): −33.0
Change from Baseline in PSSD Sign Score, Median (Week 8, 25 mg QD): −40.0
Change from Baseline in PSSD Symptom Score, Mean (Week 8, 25 mg QD): −32.3
Change from Baseline in PSSD Symptom Score, Median (Week 8, 25 mg QD): −32.0
Subjects Achieving PSSD Sign Score 0 (%) (Week 8, 25 mg QD, Baseline Sign Score ≥1, N=43): (4.7%)
Subjects Achieving PSSD Symptom Score 0 (%) (Week 8, 25 mg QD, Baseline Symptom Score ≥1, N=43): (9.3%)
Change from Baseline in PSSD Sign Score, LSMean (Week 8, 25 mg QD): −29.0
Change from Baseline in PSSD Symptom Score, LSMean (Week 8, 25 mg QD): −27.1
Change from Baseline in PSSD Sign Score, Mean (Week 8, 50 mg QD): −39.7
Change from Baseline in PSSD Sign Score, Median (Week 8, 50 mg QD): −40.5
Change from Baseline in PSSD Symptom Score, Mean (Week 8, 50 mg QD): −35.0
Change from Baseline in PSSD Symptom Score, Median (Week 8, 50 mg QD): −36.0
Subjects Achieving PSSD Sign Score 0 (%) (Week 8, 50 mg QD, Baseline Sign Score ≥1, N=43): (7.0%)
Subjects Achieving PSSD Symptom Score 0 (%) (Week 8, 50 mg QD, Baseline Symptom Score ≥1, N=42): (9.5%)
Change from Baseline in PSSD Sign Score, LSMean (Week 8, 50 mg QD): −40.1
Change from Baseline in PSSD Symptom Score, LSMean (Week 8, 50 mg QD): −34.3
Change from Baseline in PSSD Sign Score, Mean (Week 8, 100 mg BID): −48.3
Change from Baseline in PSSD Sign Score, Median (Week 8, 100 mg BID): −52.0
Change from Baseline in PSSD Symptom Score, Mean (Week 8, 100 mg BID): −41.7
Change from Baseline in PSSD Symptom Score, Median (Week 8, 100 mg BID): −42.0
Subjects Achieving PSSD Sign Score 0 (%) (Week 8, 100 mg BID, Baseline Sign Score ≥1, N=42): (9.5%)
Subjects Achieving PSSD Symptom Score 0 (%) (Week 8, 100 mg BID, Baseline Symptom Score ≥1, N=42): (16.7%)
Change from Baseline in PSSD Sign Score, LSMean (Week 8, 100 mg BID): −47.5
Change from Baseline in PSSD Symptom Score, LSMean (Week 8, 100 mg BID): −39.2
Change from Baseline in PSSD Sign Score, Mean (Week 8, 100 mg QD): −40.2
Change from Baseline in PSSD Sign Score, Median (Week 8, 100 mg QD): −43.0
Change from Baseline in PSSD Symptom Score, Mean (Week 8, 100 mg QD): −27.8
Change from Baseline in PSSD Symptom Score, Median (Week 8, 100 mg QD): −26.0
Subjects Achieving PSSD Sign Score 0 (%) (Week 8, 100 mg QD, Baseline Sign Score ≥1, N=43): (7.0%)
Subjects Achieving PSSD Symptom Score 0 (%) (Week 8, 100 mg QD, Baseline Symptom Score ≥1, N=43): (14.0%)
Change from Baseline in PSSD Sign Score, LSMean (Week 8, 100 mg QD): −43.2
Change from Baseline in PSSD Symptom Score, LSMean (Week 8, 100 mg QD): −33.3
Change from Baseline in PSSD Sign Score, Mean (Week 12, 25 mg BID): −38.5
Change from Baseline in PSSD Sign Score, Median (Week 12, 25 mg BID): −40.0
Change from Baseline in PSSD Symptom Score, Mean (Week 12, 25 mg BID): −32.0
Change from Baseline in PSSD Symptom Score, Median (Week 12, 25 mg BID): −28.0
Subjects Achieving PSSD Sign Score 0 (%) (Week 12, 25 mg BID, Baseline Sign Score ≥1, N=41): (7.3%)
Subjects Achieving PSSD Symptom Score 0 (%) (Week 12, 25 mg BID, Baseline Symptom Score ≥1, N=41): (7.3%)
Change from Baseline in PSSD Sign Score, LSMean (Week 12, 25 mg BID): −39.0
Change from Baseline in PSSD Symptom Score, LSMean (Week 12, 25 mg BID): −32.3
Change from Baseline in PSSD Sign Score, Mean (Week 12, 25 mg QD): −34.8
Change from Baseline in PSSD Sign Score, Median (Week 12, 25 mg QD): −40.0
Change from Baseline in PSSD Symptom Score, Mean (Week 12, 25 mg QD): −31.5
Change from Baseline in PSSD Symptom Score, Median (Week 12, 25 mg QD): −34.0
Subjects Achieving PSSD Symptom Score 0 (%) (Week 12, 25 mg QD, Baseline Symptom Score ≥1, N=43): (14.0%)
Change from Baseline in PSSD Sign Score, LSMean (Week 12, 25 mg QD): −30.7
Change from Baseline in PSSD Symptom Score, LSMean (Week 12, 25 mg QD): −25.8
Change from Baseline in PSSD Sign Score, Mean (Week 12, 50 mg QD): −42.5
Change from Baseline in PSSD Sign Score, Median (Week 12, 50 mg QD): −46.0
Change from Baseline in PSSD Symptom Score, Mean (Week 12, 50 mg QD): −36.3
Change from Baseline in PSSD Symptom Score, Median (Week 12, 50 mg QD): −37.0
Subjects Achieving PSSD Sign Score 0 (%) (Week 12, 50 mg QD, Baseline Sign Score ≥1, N=43): (4.7%)
Subjects Achieving PSSD Symptom Score 0 (%) (Week 12, 50 mg QD, Baseline Symptom Score ≥1, N=42): (19.0%)
Change from Baseline in PSSD Sign Score, LSMean (Week 12, 50 mg QD): −43.0
Change from Baseline in PSSD Symptom Score, LSMean (Week 12, 50 mg QD): −35.7
Change from Baseline in PSSD Sign Score, Mean (Week 12, 100 mg BID): −49.9
Change from Baseline in PSSD Sign Score, Median (Week 12, 100 mg BID): −53.0
Change from Baseline in PSSD Symptom Score, Mean (Week 12, 100 mg BID): −42.3
Change from Baseline in PSSD Symptom Score, Median (Week 12, 100 mg BID): −41.0
Subjects Achieving PSSD Sign Score 0 (%) (Week 12, 100 mg BID, Baseline Sign Score ≥1, N=42): (11.9%)
Subjects Achieving PSSD Symptom Score 0 (%) (Week 12, 100 mg BID, Baseline Symptom Score ≥1, N=42): (26.2%)
Change from Baseline in PSSD Sign Score, LSMean (Week 12, 100 mg BID): −48.8
Change from Baseline in PSSD Symptom Score, LSMean (Week 12, 100 mg BID): −39.5
Change from Baseline in PSSD Sign Score, Mean (Week 12, 100 mg QD): −39.1
Change from Baseline in PSSD Sign Score, Median (Week 12, 100 mg QD): −45.0
Change from Baseline in PSSD Symptom Score, Mean (Week 12, 100 mg QD): −27.9
Change from Baseline in PSSD Symptom Score, Median (Week 12, 100 mg QD): −27.0
Subjects Achieving PSSD Sign Score 0 (%) (Week 12, 100 mg QD, Baseline Sign Score ≥1, N=43): (7.0%)
Subjects Achieving PSSD Symptom Score 0 (%) (Week 12, 100 mg QD, Baseline Symptom Score ≥1, N=43): (20.9%)
Change from Baseline in PSSD Sign Score, LSMean (Week 12, 100 mg QD): −42.2
Change from Baseline in PSSD Symptom Score, LSMean (Week 12, 100 mg QD): −34.7
Change from Baseline in PSSD Sign Score, Mean (Week 16, 25 mg BID): −41.8
Change from Baseline in PSSD Sign Score, Median (Week 16, 25 mg BID): −36.5
Change from Baseline in PSSD Symptom Score, Mean (Week 16, 25 mg BID): −34.0
Change from Baseline in PSSD Symptom Score, Median (Week 16, 25 mg BID): −28.0
Subjects Achieving PSSD Sign Score 0 (%) (Week 16, 25 mg BID, Baseline Sign Score ≥1, N=41): (9.8%)
Subjects Achieving PSSD Symptom Score 0 (%) (Week 16, 25 mg BID, Baseline Symptom Score ≥1, N=41): (17.1%)
Change from Baseline in PSSD Sign Score, LSMean (Week 16, 25 mg BID): −40.9
Change from Baseline in PSSD Symptom Score, LSMean (Week 16, 25 mg BID): −32.7
Change from Baseline in PSSD Sign Score, Mean (Week 16, 25 mg QD): −38.6
Change from Baseline in PSSD Sign Score, Median (Week 16, 25 mg QD): −43.0
Change from Baseline in PSSD Symptom Score, Mean (Week 16, 25 mg QD): −35.8
Change from Baseline in PSSD Symptom Score, Median (Week 16, 25 mg QD): −34.0
